Reference: patent US9492424B2, “Muscle atrophy inhibitor” (MORINAGA MILK INDUSTRY CO., LTD., priority 2011, dated 2016)

Legend:
[1] = test system: MuRF1 gene; assay: expression amount of MuRF1 gene in tibialis anterior muscle by real time PCR; assay type: in vivo, rat; conditions: Example 3
From the text: (§1) The tibialis anterior muscles collected in Example 1 mentioned above were used to evaluate expression amounts of genes that participate in muscle atrophy.
(§2) The tibialis anterior muscle was frozen in liquid nitrogen immediately after the collection, and homogenized in Trizol Reagent (Invitrogen), and the total RNA was extracted by using RNeasy Mini Kit (QIAGEN). cDNA was obtained by the total RNA by using High Capacity cDNA Reverse Kit (ABI). The cDNA, primers for amplifying each of the atrogin-1, MuRF1, and myostatin genes (ABI), and Taqman Fast Universal PCR Master Mix (ABI) were mixed, and expression amount of each gene in the test sample was relatively quantified by the real time PCR method, with taking the gene expression amount in the DEX group as 1. In statistical analysis, it was determined whether there were statistically significant differences between the values obtained for the DEX group and the values obtained for the other groups according to the Dunnett test.
(§3) In Examples 1 and 2, 1 mass % of the extract of Citrus depressa was added to the feed, and fed. […]

[2] = test system: atrogin-1 gene; assay: expression amount of atrogin-1 gene in tibialis anterior muscle by real time PCR; assay type: in vivo, rat; conditions: Example 3
From the text: as §1, §2, §3

For `COc1ccc(-c2cc(=O)c3c(OC)c(OC)c(OC)c(OC)c3o2)cc1` [TAN, tangeretin], the “expression amount of the MuRF1 gene relative to DEX group taken as 1.0” value ([1]; eight-month old SD rats, 0.0004 mass % in feed for two weeks, dexamethasone) was 0.77±0.35 and the “ingestion amount with which the effect can be expected” value ([1]; from feed intake and body weight of the TAN group, 19 days ingestion) was “about 0.1 mg/kg/day”.
With `COc1ccc(-c2cc(=O)c3c(OC)c(OC)c(OC)c(OC)c3o2)cc1OC` [NOB, nobiletin] the “expression amount of the atrogin-1 gene relative to DEX group taken as 1.0” value ([2]; eight-month old SD rats, 0.0007 mass % in feed for two weeks, dexamethasone) was 0.85±0.29 and the “ingestion amount with which the effect can be expected” value ([2]; from feed intake and body weight of the NOB group, 19 days ingestion) was “about 0.2 mg/kg/day”.
